Reference: US20050244966A1, “Insulin producing cells” (Ramot At Tel Aviv University Ltd., priority 2003, published 2005)

Tested on: FH-B-TPN cells
Experiment: Insulin content of FH-B-TPN cells (RIA/ELISA of cell extracts)
Assay type: cell-based, human
Conditions: for Insulin content / Fold increase (insulin content): FH-B-TPN cells; for Insulin content / Effect on insulin content of FH-B-TPN cells (in words): RIA; for Fold increase (insulin content): vs CM; for Effect on insulin content of FH-B-TPN cells (in words): in CM, compared with regular medium or with Act-A alone
Method: FH cells were isolated and cultured as described (19), in Dulbecco's modified Eagle's medium containing 25 mM glucose and supplemented with 10% fetal bovine serum (FBS), 100 U/ml penicillin, 100 μg/ml streptomycin, 5 μM hydrocortisone, and 5 μg/ml insulin. A subclone of FH cells that was stably transduced with hTERT, designated FH-B-hTERT (FH-B), was cultured in the same medium, as described (20). FH-B cells transduced with the Pdx1 gene (see below), designated FH-B-TPN cells, were maintained in the same culture medium, with the exception of hydrocortisone and insulin (complete medium CM). For incubation in serum-free medium, the cells were placed in DMEM containing antibiotics, in the presence of 100 ng/ml insulin, 55 ng/ml transferrin, and 50 pg/ml selenium (ITS, Sigma). For all experiments activin A (Cytolab/PreproTech Asia, Rehovot, Israel) was added at a final concentration of 4 nM. except for those aimed at promoting differentiation of FH-B-TPN cells towards the beta-cell phenotype. There, addition of Act-A, as well as betacellulin (BTC, R&D Systems, Minneapolis, Minn.), nicotinamide (NA), exendin-4, and hepatocyte growth factor (HGF) (the last 3 compounds from Sigma-Aldrich) was at concentrations detailed herein below.
Insulin secretion from FH-B-TPN cells was measured by static incubation as previously described (2). Cells were plated in 24-well plates at 10^5 cells per well. The cells were preincubated for 1 hour in Krebs-Ringer buffer (KRB), followed by incubation for the indicated period of time in KRB containing 0.5 mM 1-isobutyl 3-methylxanthine (IBMX) and glucose at various concentrations. The cells were then extracted in acetic acid, and the amount of insulin in the buffer and cell extract was determined by radioimmunoassay (RIA) using the INSIK-5 kit (DiaSorin, Vercelli, Italy) according to the manufacturer. This assay has <20% crossreactivity with proinsulin. In addition, insulin content was determined using an ELISA kit (Diagnostic Systems Laboratories, Webster, Tex. or (Mercodia, Uppsala, Sweden), which recognizes only mature insulin. Insulin content was normalized to total cellular protein, measured by the Bio-Rad (Hercules, Calif.) Protein Assay kit. Human C-peptide in the cell extract was determined using a RIA kit (DiaSorin, Vercelli, Italy) or ELISA kit (Mercodia, Uppsala, Sweden) according to the manufacturers.

| Compound | Insulin content (2-8 nM in CM (6 d)) [ng/10^6 cells] | Fold increase (insulin content) (2-8 nM in CM (6 d)) | Effect on insulin content of FH-B-TPN cells (in words) | Insulin content (5 mM in CM (6 d)) [ng/10^6 cells] | Fold increase (insulin content) (5 mM in CM (6 d)) |
| --- | --- | --- | --- | --- | --- |
| exendin-4 [reference compound] | 0 | 0 | decrease | – | – |
| NC(=O)c1cccnc1 [NA, nicotinamide, reference compound] | – | – | decrease | 122 ± 20 | 0.6 |
